According to PubChem BioAssay (NCI):
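Test compounds were applied to cells in 96-well plates for 48 hours at 5 doses. At the TGI there is no net growth.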

Tests used:
Test in all cases: NCI anticancer screen, dose series, 48 h
HOP-92 NSCLC = test system: HOP-92 NSCLC
HT29 colon = test system: HT29 colon
IGROV1 ovarian = test system: IGROV1 ovarian
MOLT-4 leukemia = test system: MOLT-4 leukemia
NCI-H226 lung = test system: NCI-H226 lung
NCI-H23 lung = test system: NCI-H23 lung
SK-MEL-2 melanoma = test system: SK-MEL-2 melanoma
UACC-257 melanoma = test system: UACC-257 melanoma
NCI-H460 lung = test system: NCI-H460 lung

| SMILES | TGI (HOP-92 NSCLC) [µM] | TGI (HT29 colon) [µM] | TGI (IGROV1 ovarian) [µM] | TGI (MOLT-4 leukemia) [µM] | TGI (NCI-H226 lung) [µM] | TGI (NCI-H23 lung) [µM] | TGI (SK-MEL-2 melanoma) [µM] | TGI (UACC-257 melanoma) [µM] | TGI (NCI-H460 lung) [µM] |
| --- | --- | --- | --- | --- | --- | --- | --- | --- | --- |
| O=C1CCCC1CC(CN1CCOCC1)Sc1nnnn1-c1ccccc1 (stereo not given) | > 100 | > 100 | > 100 | > 100 | > 100 | > 100 | > 100 | > 100 |  |
| Cc1cnc2c(c1)C(=O)N(c1ccc(Oc3ccccc3)cc1)S2(=O)=O | > 100 | > 100 | > 100 | > 100 | > 100 | > 100 | > 100 | > 100 | > 100 |
| N=C(N)SCc1nc(-c2ccc(Cl)cc2)no1 | 77.6 | 29.3 | > 100 | 22.6 | > 100 | > 100 | 41.7 | > 100 | > 100 |
| CC(=O)NC1C(OCc2ccccc2)OC(CO)C(O)C1OC(C)C(=O)NC(C(=O)NC(CCC(=O)NCCCNc1ccc([N+](=O)[O-])c2[nH]c3ccccc3c(=O)c12)C(N)=O)C(C)C (stereo not given) | > 100 | > 100 | > 100 | > 100 | > 100 | > 100 | > 100 | > 100 | > 100 |
| O=S(=O)(O)c1ccc(O)c(N=Nc2c(O)ccc3ccccc23)c1 | > 100 | > 100 | > 100 | > 100 | > 100 | > 100 | > 100 | > 100 |  |
| N#Cc1sc2c(c1OC(=O)c1ccco1)c(=O)n(-c1ccccc1)c(=S)n2-c1ccccc1 |  | > 100 | > 10 | 43.4 | > 100 | > 100 | 84.2 | > 100 | > 100 |
| CCOc1ccc2c(c1)C(/C(C(Cl)=C(Cl)Cl)=[N+](/[O-])OC(=O)c1ccccc1)=N2 | > 100 | > 100 |  | > 100 | > 100 | > 100 | > 100 | > 100 | > 100 |
| COP(=O)(CP(=O)(OC)OCCC(C)CCC=C(C)C)OC (stereo not given) |  |  | > 100 | > 100 | > 100 | > 100 | > 100 | > 100 | > 100 |
| COc1cc2nc(-c3cccs3)nc(N3CCN(c4ccccc4)CC3)c2cc1OC | > 100 | > 100 | > 100 |  | > 100 | > 100 | > 100 | > 100 | > 100 |
| CCOC(=O)Cc1[nH]c(C(=O)c2ccccc2)cc1C(=O)c1ccccc1 |  | > 10 | > 10 | 85.7 | 65.8 | 33.4 | > 100 | > 10 | > 100 |
| CC1CN(c2cc3c(cc2F)c(=O)c(C(=O)O)cn3-c2ccc(N3CCN(C)CC3)cn2)CC(C)N1 (stereo not given) | > 100 | > 100 | > 100 | > 100 | > 100 | > 100 |  | > 100 | > 100 |
